From the NIST ThermoML archive (doi:10.1016/j.fluid.2014.07.002)

Assay: mean ionic activity coefficient (dimensionless); mn = molality of the nth substance listed, in mol/kg
Details: 298.2 K, 101 kPa, Liquid, potentionmetric method

[Cl-].[Na+] [sodium chloride] + O
Details	mean ionic activity coefficient
m1 = 0.001	0.965
m1 = 0.0101	0.902
m1 = 0.0502	0.82
m1 = 0.0993	0.777
m1 = 0.2495	0.718
m1 = 0.4993	0.68
m1 = 0.7496	0.663
m1 = 0.9996	0.655
m1 = 1.249	0.654
m1 = 1.5	0.656
m1 = 1.749	0.66
m1 = 1.999	0.667
m1 = 2.499	0.687
m1 = 3	0.713
